According to patent US20170064954A1, “HERBICIDAL COMPOSITIONS CONTAINING 4-AMINO-3-CHLORO-6-(4-CHLORO-2-FLUORO-3-METHOXYPHENYL)PYRIDINE-2-CARBOXYLIC ACID OR A DERIVATIVE THEREOF, A TRIAZOLOPYRIMIDINE SULFONAMIDE HERBICIDE OR A DERIVATIVE THEREOF, AND A CELL MEMBRANE DISRUPTOR HERBICIDE OR A DERIVATIVE THEREOF” (Dow AgroSciences LLC, priority 2015, published 2017):
Values joined by “and” are separate entries in the source; they are usually repeats but may differ in a detail not shown here. Equal entries are not always repeated.

Legend:
Assay in all cases: Field trial, post-emergence foliar application, visually rated % weed control
Format in all cases: in vivo
[1] = tested on: Conyza sumatrensis (Guernsey fleabane, ERISU)
Source text: (§1) Treatments consisted of the methyl ester of 4-amino-3-chloro-6-(4-chloro-2-fluoro-3-methoxyphenyl)pyridine-2-carboxylic acid (Cmpd 1, halauxifen-methyl) and diclosulam in combination as GF-3220. The form of compound of formula (I) was applied on an acid equivalent basis, and diclosulam was applied on an active ingredient basis. Glufosinate-ammonium salt was applied as various commercial formulations containing 480 grams acid equivalent per liter (g ae/L). Saflufenacil was applied as a commercial formulation containing 700 grams per kilogram (g/kg). Paraquat was applied as a commercial formulation containing 200 g/L.
(§2) Field trials were conducted under standard field conditions. Plot sizes varied from 2-4 meters (m) wide by 2-5 m long. Treatments were applied with small plot backpack sprayers, using pressurized carbon dioxide (CO2) as propellant. Pressure varied from 22-40 pounds per square inch (PSI), with spray tips typically of a Flat Fan type applying water diluent at 100-150 liters per hectare (L/ha). Boom sizes varied from 2-4 m in width. Weed sizes varied, but all treatments were applied as post-emergence treatments to weeds from 2 leaf to 2 tiller growth stages varying from 2-15 inches in height. No additional adjuvant was mixed with the treatments applied in the field.
(§3) Results in Tables 1 to 7 are field trial results for foliar applied compositions. The values reported are percent (%) control visually rated. The predicted percent (%) weed control was determined using Colby's equation. • The compositions tested, application rates employed, plant species tested, and results are given in Tables 1 to 7. • The following abbreviations are used in Tables 1 to 7: • ERISS=Conyza species (fleabane, ERISS) • ERISU=Conyza sumatrensis (Guernsey fleabane) • EPHHL=Euphorbia heterophylla L. (wild poinsettia) • IAQGR=Ipomoea grandifolia (Corda-de-viola) • ERIBO=Conyza bonariensis (fleabane) • g ae/ha=grams acid equivalent per hectare • g ai/ha=grams active ingredient per hectare • Mean % weed control=observed value of percent (%) control rated visually • Predicted mean % weed control=expected value of percent (%) control as calculated by Colby's equation • Cmpd 1=methyl 4-amino-3-chloro-6-(4-chloro-2-fluoro-3-methoxyphenyl)pyridine-2-carboxylate, halauxifen-methyl, or ARYLEX®

[2] = tested on: Conyza bonariensis (fleabane, ERIBO); conditions: Table 7, ERIBO, 21DAA, Paraquat 200 g ai/ha
Source text: as §1, §2, §3

[3] = tested on: Conyza species (fleabane, ERISS)
Source text: as §1, §2, §3

[4] = tested on: Euphorbia heterophylla L. (wild poinsettia, EPHHL); conditions: Table 4, EPHHL
Source text: as §1, §2, §3

[5] = tested on: Ipomoea grandifolia (Corda-de-viola, IAQGR); conditions: Table 5, IAQGR, Paraquat 300 g ai/ha
Source text: as §1, §2, §3

CP(=O)(O)CCC(N)C(=O)O (stereo not drawn) [Glufosinate ammonium]
Mean % weed control ([1]; Table 1, ERISU, 17DAA, Glufosinate ammonium 366 g ai/ha): 58.75% and 71.25% | Mean % weed control ([1]; Table 1, ERISU, 28DAA, Glufosinate ammonium 366 g ai/ha): 71.25% | Mean % weed control ([1]; Table 1, ERISU, 43DAA, Glufosinate ammonium 366 g ai/ha): 78.75%

C[n+]1ccc(-c2cc[n+](C)cc2)cc1 [Paraquat, 1,1′-dimethyl-4,4′-bipyridinediium]
Mean % weed control [2]: 28.3% | Mean % weed control ([3]; Table 3, ERISS, 17DAA, Paraquat 400 g ai/ha): 32.5% and 52.5% | Mean % weed control ([3]; Table 3, ERISS, 28DAA, Paraquat 400 g ai/ha): 52.5% and 55% | Mean % weed control ([3]; Table 3, ERISS, 43DAA, Paraquat 400 g ai/ha): 60% and 65% | Mean % weed control ([1]; Table 6, ERISU, 13DAA, Paraquat 100 g ai/ha): 26.3% | Mean % weed control ([1]; Table 6, ERISU, 13DAA, Paraquat 200 g ai/ha): 40% | Mean % weed control ([1]; Table 6, ERISU, 22DAA, Paraquat 100 g ai/ha): 41.3% and 41.1% | Mean % weed control ([1]; Table 6, ERISU, 22DAA, Paraquat 200 g ai/ha): 56.3% | Mean % weed control ([1]; Table 6, ERISU, 28DAA, Paraquat 100 g ai/ha): 47.5% | Mean % weed control ([1]; Table 6, ERISU, 28DAA, Paraquat 200 g ai/ha): 61.3% | Mean % weed control ([4]; 14DAA, Paraquat 300 g ai/ha): 81.8% | Mean % weed control ([4]; 21DAA, Paraquat 100 g ai/ha): 56% | Mean % weed control ([4]; 21DAA, Paraquat 300 g ai/ha): 82.8% | Mean % weed control ([4]; 30DAA, Paraquat 100 g ai/ha): 48.3% | Mean % weed control ([4]; 30DAA, Paraquat 300 g ai/ha): 81.8% | Mean % weed control ([5]; 14DAA): 54.3% | Mean % weed control ([5]; 21DAA): 45% | Mean % weed control ([5]; 30DAA): 39.8%

CC(C)N(C)S(=O)(=O)NC(=O)c1cc(-n2c(=O)cc(C(F)(F)F)n(C)c2=O)c(F)cc1Cl [Saflufenacil, 2-chloro-5-[3,6-dihydro-3-methyl-2,6-dioxo-4-(trifluoromethyl)-1(2H)-pyrimidinyl]-4-fluoro-N-[[methyl(1-methylethyl)amino]sulfonyl]benzamide]
Mean % weed control ([3]; Table 2, ERISS, 17DAA, Saflufenacil 49 g ai/ha): 52.5% and 66.3% | Mean % weed control ([3]; Table 2, ERISS, 28DAA, Saflufenacil 49 g ai/ha): 66.3% | Mean % weed control ([3]; Table 2, ERISS, 43DAA, Saflufenacil 49 g ai/ha): 77.5%
